Legend:
Assay type in all cases: in vivo
prostate = conditions: swollen prostate
anti-inflammatory = conditions: in all forms
[1] = vasodilatation / acceleration of microcirculation
Description: (§1) This acceleration of microcirculation has many positive benefits.

hypertension = conditions: encapsulated
wound healing = experiment: wound healing
Description: as §1

pain relief = conditions: wounds such as burns and skin lesions

Substance: lithio-arginino-glycino-parabenzene-fulvate [Li-TAFA]
- prostate size (prostate): demonstrated the ability to shrink a swollen prostate to normal size
- reduction of inflammation and of resulting discomfort (anti-inflammatory): shown the ability to reduce inflammation and control the discomfort resulting from inflammation
- vasodilatation qualities / acceleration of microcirculation ([1]; used topically or internally): exhibited vasodilatation qualities
- toxic side effects ([1]; used topically or internally to accelerate microcirculation): without toxic side effects
- reduction of hypertension (hypertension): demonstrated the ability to reduce hypertension
- toxic side effects (hypertension): without toxic side effects
- healing of wounds, burns and chronic lesions (wound healing; lesions healed: 3rd degree radiation burns, squamous and basal cell carcinoma, psoriasis, venous stasis ulcers, decubitus ulcers, deep surgical wounding, herpes): exhibited the ability to aid and accelerate the healing of wounds, burns (of all degrees) and several types of chronic lesions
- scar formation (wound healing; radiation burns of the 3rd degree): complete suppression of scar formation
- pain relief (pain relief): demonstrated substantial pain relief, without diminishing topical sensation

Source: patent US20130109636A1, “TRI-AMINO RELEASING FULVATE” (priority 2011, published 2013)
